Target: F508delCFTR (Homo sapiens, UniProt P13569, DEL508-508)
Assay: Cell Surface Expression-Horse Radish Peroxidase (CSE-HRP) assay
Assay type: cell-based
Design: expressed in transfected cells; host or cells: CFBE41o- human lung derived epithelial cell line, doxycycline-inducible
Conditions: CFBE4lo-F508delCFTR-HRP cells; for EC50: 18-24 hours at 33° C., 8-point curve, highest concentration 20 μM, luminescence readout
Outline: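 Following 18-24 h compound exposure at 33° C. Expression was doxycycline-induced beforehand. % activity versus DMSO and a 3 μM corrector control gave maximum activity and EC50 from a variable-Hill sigmoidal fit.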

[1] = maximum % activity at any tested concentration, normalized to on-plate positive control (3 μM Example 1)

Sequence of F508delCFTR (P13569 with tags, fused parts or gaps DEL508-508): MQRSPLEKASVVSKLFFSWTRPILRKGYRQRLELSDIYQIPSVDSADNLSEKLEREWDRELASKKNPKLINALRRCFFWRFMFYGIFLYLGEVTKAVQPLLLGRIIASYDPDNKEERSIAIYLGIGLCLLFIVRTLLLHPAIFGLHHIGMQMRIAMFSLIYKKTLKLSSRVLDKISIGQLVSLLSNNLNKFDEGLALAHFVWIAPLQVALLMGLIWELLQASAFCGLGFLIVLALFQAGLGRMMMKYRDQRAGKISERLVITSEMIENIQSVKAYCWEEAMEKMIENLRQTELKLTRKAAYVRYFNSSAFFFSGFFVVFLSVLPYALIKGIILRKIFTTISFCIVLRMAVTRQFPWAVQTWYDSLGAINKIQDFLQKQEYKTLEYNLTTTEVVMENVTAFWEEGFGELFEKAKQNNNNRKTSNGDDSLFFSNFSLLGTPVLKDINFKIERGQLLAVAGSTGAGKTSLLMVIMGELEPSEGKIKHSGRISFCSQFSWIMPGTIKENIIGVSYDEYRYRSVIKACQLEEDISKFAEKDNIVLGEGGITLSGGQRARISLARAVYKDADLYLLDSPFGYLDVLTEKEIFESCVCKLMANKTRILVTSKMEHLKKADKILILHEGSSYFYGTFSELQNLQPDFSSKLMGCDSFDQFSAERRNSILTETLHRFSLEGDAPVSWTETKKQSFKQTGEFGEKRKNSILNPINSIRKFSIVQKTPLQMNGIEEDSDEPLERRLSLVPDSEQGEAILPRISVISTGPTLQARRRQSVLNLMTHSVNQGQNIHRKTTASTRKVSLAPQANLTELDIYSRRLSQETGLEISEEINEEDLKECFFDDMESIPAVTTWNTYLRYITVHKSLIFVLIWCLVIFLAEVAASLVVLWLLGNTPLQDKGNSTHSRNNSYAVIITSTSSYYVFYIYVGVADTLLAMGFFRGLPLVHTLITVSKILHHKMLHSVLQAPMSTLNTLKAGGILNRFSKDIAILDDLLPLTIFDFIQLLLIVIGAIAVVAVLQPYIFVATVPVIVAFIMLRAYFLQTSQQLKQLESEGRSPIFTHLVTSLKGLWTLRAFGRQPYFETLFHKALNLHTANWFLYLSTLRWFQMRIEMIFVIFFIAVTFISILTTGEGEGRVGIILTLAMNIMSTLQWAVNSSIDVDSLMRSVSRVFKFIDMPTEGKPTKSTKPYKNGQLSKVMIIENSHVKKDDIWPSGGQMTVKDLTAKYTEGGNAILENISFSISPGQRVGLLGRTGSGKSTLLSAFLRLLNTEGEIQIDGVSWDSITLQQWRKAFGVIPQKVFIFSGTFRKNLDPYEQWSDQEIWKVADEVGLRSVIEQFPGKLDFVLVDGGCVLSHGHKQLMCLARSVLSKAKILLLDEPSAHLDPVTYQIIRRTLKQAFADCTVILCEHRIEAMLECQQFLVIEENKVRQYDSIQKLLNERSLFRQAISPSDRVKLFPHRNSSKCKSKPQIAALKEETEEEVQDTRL

Row | EC50 [nM] | Maximum % activity (%) [1] [%] | Emax [1] [%] | Structure (SMILES)
1 | 3360 | 90 | – | O=C(O)c1cnc(C2CC(NC(=O)C3(c4ccc5c(c4)OC(F)(F)O5)CC3)c3ccccc3O2)s1 (single isomer, unassigned) [Example 136]
2 | 3440 | – | 86 | CCOC(=O)c1cnc([C@@H]2C[C@H](NC(=O)C3(c4ccc5c(c4)OC(F)(F)O5)CC3)c3ccccc3O2)s1 (stereo in doubt) [Example 132, ethyl rel-2-[(2S,4S)-4-({[1-(2,2-difluoro-1,3-benzodioxol-5-yl)cyclopropyl]carbonyl}amino)-3,4-dihydro-2H-chromen-2-yl]-1,3-thiazole-5-carboxylate]
3 | 1510 | – | 97 | CCOC(=O)c1cnc([C@H]2C[C@@H](NC(=O)C3(c4ccc5c(c4)OC(F)(F)O5)CC3)c3ccccc3O2)s1 (stereo in doubt) [Example 135, ethyl rel-2-[(2R,4R)-4-({[1-(2,2-difluoro-1,3-benzodioxol-5-yl)cyclopropyl]carbonyl}amino)-3,4-dihydro-2H-chromen-2-yl]-1,3-thiazole-5-carboxylate]
4 | 2280 | – | 53 | CCOC(=O)c1csc([C@@H]2C[C@H](NC(=O)C3(c4ccc5c(c4)OC(F)(F)O5)CC3)c3ccccc3O2)n1 (stereo in doubt) [Example 140, ethyl rel-2-[(2S,4S)-4-({[1-(2,2-difluoro-1,3-benzodioxol-5-yl)cyclopropyl]carbonyl}amino)-3,4-dihydro-2H-chromen-2-yl]-1,3-thiazole-4-carboxylate]
5 | 1180 | – | 87 | CCOC(=O)c1csc([C@H]2C[C@@H](NC(=O)C3(c4ccc5c(c4)OC(F)(F)O5)CC3)c3ccccc3O2)n1 (stereo in doubt) [Example 142, ethyl rel-2-[(2R,4R)-4-({[1-(2,2-difluoro-1,3-benzodioxol-5-yl)cyclopropyl]carbonyl}amino)-3,4-dihydro-2H-chromen-2-yl]-1,3-thiazole-4-carboxylate]
6 | 8500 | – | 27 | O=C(O)c1csc([C@@H]2C[C@H](NC(=O)C3(c4ccc5c(c4)OC(F)(F)O5)CC3)c3ccccc3O2)n1 (stereo in doubt) [Example 143, rel-2-[(2S,4S)-4-({[1-(2,2-difluoro-1,3-benzodioxol-5-yl)cyclopropyl]carbonyl}amino)-3,4-dihydro-2H-chromen-2-yl]-1,3-thiazole-4-carboxylic acid]
7 | 2450 | – | 96 | O=C(O)c1csc([C@H]2C[C@@H](NC(=O)C3(c4ccc5c(c4)OC(F)(F)O5)CC3)c3ccccc3O2)n1 (stereo in doubt) [Example 145, rel-2-[(2R,4R)-4-({[1-(2,2-difluoro-1,3-benzodioxol-5-yl)cyclopropyl]carbonyl}amino)-3,4-dihydro-2H-chromen-2-yl]-1,3-thiazole-4-carboxylic acid]
8 | 5840 | – | 58 | COC(=O)c1cccc([C@H]2C[C@H](NC(=O)C3(c4ccc5c(c4)OC(F)(F)O5)CC3)c3ccccc3O2)c1 [Example 7, methyl 3-[(2R,4S)-4-({[1-(2,2-difluoro-1,3-benzodioxol-5-yl)cyclopropyl]carbonyl}amino)-3,4-dihydro-2H-chromen-2-yl]benzoate]
9 | 1750 | – | 98 | COC(=O)c1cccc([C@H]2C[C@@H](NC(=O)C3(c4ccc5c(c4)OC(F)(F)O5)CC3)c3ccccc3O2)c1 [Example 8, methyl 3-[(2R,4R)-4-({[1-(2,2-difluoro-1,3-benzodioxol-5-yl)cyclopropyl]carbonyl}amino)-3,4-dihydro-2H-chromen-2-yl]benzoate]

Continued, compound first:

Row | Structure (SMILES) | EC50 [nM] | Maximum % activity (%) [1] [%] | Emax [1] [%]
10 | CCOC(=O)c1cccc([C@@H]2C[C@H](NC(=O)C3(c4ccc5c(c4)OC(F)(F)O5)CC3)c3ccncc3O2)c1 (stereo in doubt) [Example 24, ethyl rel-3-[(2S,4S)-4-({[1-(2,2-difluoro-1,3-benzodioxol-5-yl)cyclopropyl]carbonyl}amino)-3,4-dihydro-2H-pyrano[2,3-c]pyridin-2-yl]benzoate] | 8370 | – | 63
11 | CCOC(=O)c1cccc([C@H]2C[C@@H](NC(=O)C3(c4ccc5c(c4)OC(F)(F)O5)CC3)c3ccncc3O2)c1 (stereo in doubt) [Example 25, ethyl rel-3-[(2R,4R)-4-({[1-(2,2-difluoro-1,3-benzodioxol-5-yl)cyclopropyl]carbonyl}amino)-3,4-dihydro-2H-pyrano[2,3-c]pyridin-2-yl]benzoate] | 3910 | – | 41
12 | CCOC(=O)c1csc([C@H]2C[C@@H](NC(=O)C3(c4ccc5c(c4)OC(F)(F)O5)CC3)c3ccc(OC)cc3O2)n1 (stereo in doubt) [Example 155, ethyl rel-2-[(2R,4R)-4-({[1-(2,2-difluoro-1,3-benzodioxol-5-yl)cyclopropyl]carbonyl}amino)-7-methoxy-3,4-dihydro-2H-chromen-2-yl]-1,3-thiazole-4-carboxylate] | 370 | – | 108
13 | COc1ccc2c(c1)O[C@@H](c1nc(C(=O)O)cs1)C[C@H]2NC(=O)C1(c2ccc3c(c2)OC(F)(F)O3)CC1 (stereo in doubt) [Example 156, rel-2-[(2R,4R)-4-({[1-(2,2-difluoro-1,3-benzodioxol-5-yl)cyclopropyl]carbonyl}amino)-7-methoxy-3,4-dihydro-2H-chromen-2-yl]-1,3-thiazole-4-carboxylic acid] | 1230 | – | 112
14 | CCOC(=O)c1csc([C@@H]2C[C@H](NC(=O)C3(c4ccc5c(c4)OC(F)(F)O5)CC3)c3ccc(OC)cc3O2)n1 (stereo in doubt) [Example 157, ethyl rel-2-[(2S,4S)-4-({[1-(2,2-difluoro-1,3-benzodioxol-5-yl)cyclopropyl]carbonyl}amino)-7-methoxy-3,4-dihydro-2H-chromen-2-yl]-1,3-thiazole-4-carboxylate] | 1520 | – | 77
15 | COc1ccc2c(c1)O[C@H](c1nc(C(=O)O)cs1)C[C@@H]2NC(=O)C1(c2ccc3c(c2)OC(F)(F)O3)CC1 (stereo in doubt) [Example 158, rel-2-[(2S,4S)-4-({[1-(2,2-difluoro-1,3-benzodioxol-5-yl)cyclopropyl]carbonyl}amino)-7-methoxy-3,4-dihydro-2H-chromen-2-yl]-1,3-thiazole-4-carboxylic acid] | 6650 | – | 101
16 | COC(=O)c1ccc([C@H]2C[C@H](NC(=O)C3(c4ccc5c(c4)OC(F)(F)O5)CC3)c3ccc(OC)cc3O2)nc1 (stereo in doubt) [Example 159, methyl rel-6-[(2R,4S)-4-({[1-(2,2-difluoro-1,3-benzodioxol-5-yl)cyclopropyl]carbonyl}amino)-7-methoxy-3,4-dihydro-2H-chromen-2-yl]pyridine-3-carboxylate] | 1360 | – | 92
17 | COC(=O)c1ccc([C@@H]2C[C@@H](NC(=O)C3(c4ccc5c(c4)OC(F)(F)O5)CC3)c3ccc(OC)cc3O2)nc1 (stereo in doubt) [Example 160, methyl rel-6-[(2S,4R)-4-({[1-(2,2-difluoro-1,3-benzodioxol-5-yl)cyclopropyl]carbonyl}amino)-7-methoxy-3,4-dihydro-2H-chromen-2-yl]pyridine-3-carboxylate] | 600 | – | 104
18 | COC(=O)c1ccc([C@@H]2C[C@H](NC(=O)C3(c4ccc5c(c4)OC(F)(F)O5)CC3)c3ccc(OC)cc3O2)nc1 (stereo in doubt) [Example 161, methyl rel-6-[(2S,4S)-4-({[1-(2,2-difluoro-1,3-benzodioxol-5-yl)cyclopropyl]carbonyl}amino)-7-methoxy-3,4-dihydro-2H-chromen-2-yl]pyridine-3-carboxylate] | 2260 | – | 82
19 | COC(=O)c1ccc([C@H]2C[C@@H](NC(=O)C3(c4ccc5c(c4)OC(F)(F)O5)CC3)c3ccc(OC)cc3O2)nc1 (stereo in doubt) [Example 162, methyl rel-6-[(2R,4R)-4-({[1-(2,2-difluoro-1,3-benzodioxol-5-yl)cyclopropyl]carbonyl}amino)-7-methoxy-3,4-dihydro-2H-chromen-2-yl]pyridine-3-carboxylate] | 170 | – | 105
20 | COc1ccc2c(c1)O[C@@H](c1cccc(C(=O)O)c1)C[C@@H]2NC(=O)C1(c2ccc3c(c2)OC(F)(F)O3)CC1 [Example 2, 3-[(2R,4S)-4-({[1-(2,2-difluoro-1,3-benzodioxol-5-yl)cyclopropyl]carbonyl}amino)-7-methoxy-3,4-dihydro-2H-chromen-2-yl]benzoic acid] | 2710 | – | 122
21 | COc1ccc2c(c1)O[C@H](c1ccc(OC)c(OC)c1)C[C@@H]2NC(=O)C1(c2ccc3c(c2)OC(F)(F)O3)CC1 [Example 4, 1-(2,2-difluoro-1,3-benzodioxol-5-yl)-N-[(2S,4S)-2-(3,4-dimethoxyphenyl)-7-methoxy-3,4-dihydro-2H-chromen-4-yl]cyclopropanecarboxamide] | 1190 | – | 73
22 | COC(=O)c1cccc([C@H]2C[C@H](NC(=O)C3(c4ccc5c(c4)OC(F)(F)O5)CC3)c3ccc(OC)cc3O2)c1 [Example 5, methyl 3-[(2R,4S)-4-({[1-(2,2-difluoro-1,3-benzodioxol-5-yl)cyclopropyl]carbonyl}amino)-7-methoxy-3,4-dihydro-2H-chromen-2-yl]benzoate] | 2450 | – | 92
23 | COC(=O)c1cccc([C@H]2C[C@@H](NC(=O)C3(c4ccc5c(c4)OC(F)(F)O5)CC3)c3ccc(OC)cc3O2)c1 [Example 6, methyl 3-[(2R,4R)-4-({[1-(2,2-difluoro-1,3-benzodioxol-5-yl)cyclopropyl]carbonyl}amino)-7-methoxy-3,4-dihydro-2H-chromen-2-yl]benzoate] | 380 | – | 120

Source: patent publication US9642831B2, “Substituted chromanes and method of use” (AbbVie S.á.r.l., priority 2014, dated 2017)
